Our source for the remaining activity values is patent publication US20110152313A1 (MACQUARIE UNIVERSITY, priority 2008, published 2011).

Holding throughout (test): kinase binding screen (kinase-tagged T7 phage, qPCR), % Ctrl
(In qPCR the cycle at which signal appears reflects the starting amount.)

One assay addresses CAMK1G (Homo sapiens, UniProt Q96NX5). The method in brief: (§1)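 Steps: grow T7 phage displaying kinase in BL21-derived E. coli; clarify lysate; combine with ligand-liganded, blocked beads and compound (single concentration, diluted from 40× DMSO stock); elute; quantify kinase by qPCR.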
The target of a further assay is CAMK2G (Homo sapiens, UniProt Q13555). Put shortly:
as §1

A further assay addresses CAMKK2 (Homo sapiens, UniProt Q96RR4). Put shortly: as §1
In the next assay the target is T1, DRAK1 (Homo sapiens, UniProt Q9UEE5).
T1 sequence (Q9UEE5 1-414): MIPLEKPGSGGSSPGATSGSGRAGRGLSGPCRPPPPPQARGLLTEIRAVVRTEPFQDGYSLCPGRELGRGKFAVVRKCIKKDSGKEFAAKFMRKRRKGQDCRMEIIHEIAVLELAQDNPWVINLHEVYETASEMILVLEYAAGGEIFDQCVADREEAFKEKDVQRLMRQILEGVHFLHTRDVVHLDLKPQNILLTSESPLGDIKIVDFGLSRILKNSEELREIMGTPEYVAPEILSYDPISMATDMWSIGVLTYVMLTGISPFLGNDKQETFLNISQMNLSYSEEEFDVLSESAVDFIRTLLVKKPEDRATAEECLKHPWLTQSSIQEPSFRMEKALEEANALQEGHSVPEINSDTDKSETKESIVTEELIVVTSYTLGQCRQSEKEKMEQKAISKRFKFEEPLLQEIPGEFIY
The method in brief: as §1

The next assay deals with T2, IRAK3 (Homo sapiens, UniProt Q9Y616).
T2 sequence (Q9Y616 1-596): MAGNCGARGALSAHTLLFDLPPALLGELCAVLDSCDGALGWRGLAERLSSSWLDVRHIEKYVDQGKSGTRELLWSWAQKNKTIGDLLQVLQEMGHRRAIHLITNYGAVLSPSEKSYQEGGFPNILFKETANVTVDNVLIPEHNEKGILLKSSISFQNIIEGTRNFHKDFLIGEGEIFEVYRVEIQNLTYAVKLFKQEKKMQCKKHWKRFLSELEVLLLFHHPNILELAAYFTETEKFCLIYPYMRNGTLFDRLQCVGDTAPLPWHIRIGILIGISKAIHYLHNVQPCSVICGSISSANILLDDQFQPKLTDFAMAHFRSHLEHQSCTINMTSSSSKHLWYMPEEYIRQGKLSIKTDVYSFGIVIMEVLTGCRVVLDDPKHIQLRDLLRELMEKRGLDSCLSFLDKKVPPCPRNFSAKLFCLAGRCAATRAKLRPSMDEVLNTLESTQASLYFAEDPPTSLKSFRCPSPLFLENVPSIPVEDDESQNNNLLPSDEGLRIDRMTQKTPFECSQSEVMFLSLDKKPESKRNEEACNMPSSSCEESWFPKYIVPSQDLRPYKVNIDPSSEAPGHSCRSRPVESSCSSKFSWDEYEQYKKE
Put shortly: as §1

Another assay has as its target T3, MAP3K15 (Homo sapiens, UniProt Q6ZN16).
T3 sequence (Q6ZN16 1-1313): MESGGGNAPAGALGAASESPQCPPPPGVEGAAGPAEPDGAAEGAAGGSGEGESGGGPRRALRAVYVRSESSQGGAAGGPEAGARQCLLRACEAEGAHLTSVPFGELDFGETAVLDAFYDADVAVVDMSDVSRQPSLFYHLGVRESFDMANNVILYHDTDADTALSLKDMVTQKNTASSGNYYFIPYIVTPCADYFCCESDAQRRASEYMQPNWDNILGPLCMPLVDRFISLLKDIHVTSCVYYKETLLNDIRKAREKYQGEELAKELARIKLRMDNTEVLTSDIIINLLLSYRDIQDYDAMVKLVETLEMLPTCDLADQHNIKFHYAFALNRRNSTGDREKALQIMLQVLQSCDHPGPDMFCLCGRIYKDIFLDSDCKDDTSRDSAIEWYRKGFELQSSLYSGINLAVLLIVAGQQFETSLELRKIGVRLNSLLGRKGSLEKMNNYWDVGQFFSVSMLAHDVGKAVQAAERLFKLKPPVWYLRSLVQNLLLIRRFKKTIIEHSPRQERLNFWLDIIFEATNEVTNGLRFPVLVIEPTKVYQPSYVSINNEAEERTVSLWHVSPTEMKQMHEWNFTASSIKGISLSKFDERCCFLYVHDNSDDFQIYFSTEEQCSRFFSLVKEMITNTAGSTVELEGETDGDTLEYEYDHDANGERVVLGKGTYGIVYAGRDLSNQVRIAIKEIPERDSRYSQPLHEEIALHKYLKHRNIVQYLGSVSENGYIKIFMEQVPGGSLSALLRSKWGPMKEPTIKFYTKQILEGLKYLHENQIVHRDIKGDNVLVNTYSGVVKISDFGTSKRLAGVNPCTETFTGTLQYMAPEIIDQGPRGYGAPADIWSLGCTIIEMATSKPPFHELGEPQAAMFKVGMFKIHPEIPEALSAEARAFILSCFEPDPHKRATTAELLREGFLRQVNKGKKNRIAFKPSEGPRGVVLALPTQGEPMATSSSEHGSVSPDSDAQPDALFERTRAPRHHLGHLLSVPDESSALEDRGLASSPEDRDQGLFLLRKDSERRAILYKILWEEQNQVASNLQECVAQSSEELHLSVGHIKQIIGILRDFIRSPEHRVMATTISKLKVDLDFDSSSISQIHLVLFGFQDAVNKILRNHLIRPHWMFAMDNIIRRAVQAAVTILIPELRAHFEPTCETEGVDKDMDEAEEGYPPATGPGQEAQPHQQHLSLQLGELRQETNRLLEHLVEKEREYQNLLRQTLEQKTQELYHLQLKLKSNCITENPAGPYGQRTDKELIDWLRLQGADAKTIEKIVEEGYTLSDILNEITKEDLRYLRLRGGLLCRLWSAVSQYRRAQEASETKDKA
Put shortly:
as §1

As a reminder, the remaining activity is the share of the control activity or signal that is left under treatment. A lower remaining activity goes with little activity left.

Each structure is given as a SMILES string.

Sequence of CAMK1G (Q96NX5 whole entry): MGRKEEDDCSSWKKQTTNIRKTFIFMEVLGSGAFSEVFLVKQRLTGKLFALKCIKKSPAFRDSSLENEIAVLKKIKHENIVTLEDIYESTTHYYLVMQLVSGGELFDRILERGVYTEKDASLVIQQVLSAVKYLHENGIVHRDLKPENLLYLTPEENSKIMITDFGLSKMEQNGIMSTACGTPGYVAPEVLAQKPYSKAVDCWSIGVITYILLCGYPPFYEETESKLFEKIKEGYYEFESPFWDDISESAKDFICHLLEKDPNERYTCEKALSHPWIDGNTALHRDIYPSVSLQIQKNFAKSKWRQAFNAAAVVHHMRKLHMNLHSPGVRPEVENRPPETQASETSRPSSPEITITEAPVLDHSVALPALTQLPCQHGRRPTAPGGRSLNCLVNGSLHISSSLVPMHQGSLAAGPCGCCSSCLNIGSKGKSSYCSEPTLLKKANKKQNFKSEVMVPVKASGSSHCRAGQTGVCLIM
Sequence of CAMKK2 (Q96RR4 whole entry): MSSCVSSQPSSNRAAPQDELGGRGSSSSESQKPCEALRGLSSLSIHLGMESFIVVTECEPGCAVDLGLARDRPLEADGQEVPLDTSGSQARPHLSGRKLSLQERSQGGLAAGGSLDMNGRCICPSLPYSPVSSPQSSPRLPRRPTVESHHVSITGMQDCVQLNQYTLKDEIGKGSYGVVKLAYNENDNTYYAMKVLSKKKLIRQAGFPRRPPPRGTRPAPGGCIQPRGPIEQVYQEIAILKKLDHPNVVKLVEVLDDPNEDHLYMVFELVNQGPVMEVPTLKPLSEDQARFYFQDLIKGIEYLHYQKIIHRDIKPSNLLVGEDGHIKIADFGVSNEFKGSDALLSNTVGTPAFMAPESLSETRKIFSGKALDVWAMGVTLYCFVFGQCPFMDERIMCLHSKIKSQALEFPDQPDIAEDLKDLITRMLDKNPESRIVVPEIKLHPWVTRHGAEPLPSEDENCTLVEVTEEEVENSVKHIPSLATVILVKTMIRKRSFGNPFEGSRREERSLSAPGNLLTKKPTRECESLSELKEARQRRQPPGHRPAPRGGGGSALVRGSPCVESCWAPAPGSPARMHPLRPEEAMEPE
Sequence of CAMK2G (Q13555 whole entry): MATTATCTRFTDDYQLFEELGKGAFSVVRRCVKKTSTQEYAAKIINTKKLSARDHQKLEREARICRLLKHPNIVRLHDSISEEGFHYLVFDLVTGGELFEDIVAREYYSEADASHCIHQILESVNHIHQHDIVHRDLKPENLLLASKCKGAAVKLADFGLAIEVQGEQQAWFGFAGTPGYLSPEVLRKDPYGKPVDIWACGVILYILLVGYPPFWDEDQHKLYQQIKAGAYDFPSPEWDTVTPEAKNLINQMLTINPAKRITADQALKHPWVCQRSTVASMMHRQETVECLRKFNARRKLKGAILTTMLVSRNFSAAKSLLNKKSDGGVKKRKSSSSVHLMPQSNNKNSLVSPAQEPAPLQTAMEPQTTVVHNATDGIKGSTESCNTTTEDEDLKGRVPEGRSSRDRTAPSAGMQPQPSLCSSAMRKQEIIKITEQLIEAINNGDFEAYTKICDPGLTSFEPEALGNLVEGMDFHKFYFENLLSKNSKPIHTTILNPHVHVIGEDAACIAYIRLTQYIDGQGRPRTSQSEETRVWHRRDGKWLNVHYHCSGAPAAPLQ

Take `Nc1nc2c(-c3ccccn3)nccc2[nH]1` [drawing 35, 4-(pyrid-2-yl)-1H-imidazo[4,5-c]pyridin-2-amine]: the remaining activity at 1 µM at CAMK1G is 43%; on CAMK2G it was 20%; on CAMKK2 it was 35%; at DRAK1 it was 56%; on IRAK3 it was 88%; on MAP3K15 it was 40%.

Consider `Nc1nc2c(-c3cnc4ccccc4c3)nccc2[nH]1` [drawing 36, 4-(quinolin-3-yl)-1H-imidazo[4,5-c]pyridin-2-amine], for which the remaining activity at 1 µM at CAMK1G worked out at 100%; at CAMK2G it was 100%; on CAMKK2, 100%; on DRAK1, 100%; at IRAK3, 56%; on MAP3K15 it was 94%.

As for `Nc1nc2c(-c3cc(Br)c(Br)[nH]3)nccc2[nH]1` [Ageladine A, ageladine A, reference compound], the remaining activity at 1 µM at CAMK1G amounted to 100%; at CAMK2G, 100%; on CAMKK2 it was 90%; at DRAK1 it was 78%; on IRAK3, 85%; at MAP3K15, 100%. Besides, the remaining activity at 10 µM amounted to 96% at CAMK1G (10 μM); 78% on CAMK2G (10 μM); 83% at CAMKK2 (10 μM); 86% on DRAK1 (10 μM); 51% on IRAK3 (10 μM); 78% on MAP3K15 (10 μM).
